Laboratory results reported in patent US10010527B2, “Active metabolite of 1-[(2-bromophenyl)sulfonyl]-5-methoxy-3-[(4-methyl-1-piperazinyl)methyl]-1H-indole dimesylate monohydrate and dimesylate dihydrate salt of active metabolite” (SUVEN LIFE SCIENCES LIMITED, priority 2014, dated 2018).

Tested on: rats
Test: Radial arm maze (reversal of scopolamine induced amnesia)
Assay type: in vivo, rat
Settings: p.o.
Source text: Example 4: Radial Arm Maze
The cognition enhancing properties of formula (I) and formula (II) of this invention were estimated by using this model.
Radial arm maze consists of a central hub of 45 centimeter diameter. Each arm was of dimension 42.5×15×24 centimeter. The maze was elevated to a height of 1 meter above the ground. The animals were placed on a restricted diet until they reached approximately 85% of their free feeding weight. During this diet restriction period animals were habituated to the novel feed (pellets). Once the rats reached approximately 85% of their free feeding weight rats were habituated to the maze on the 1st and 2nd day. […] Animals were randomized on day 2. On the subsequent days the treatment was given as per the allotment. Each animal was introduced into the maze individually for a period of 10 minutes. The arms were baited only once and the animal had to learn the rule that repeated arm entries would not be rewarded. The trial ended once the rat had visited 16 arms or 10 minutes were over or all the pellets were eaten. The arm entries were recorded using the software.

Compound | Reversal of Scopolamine Induced amnesia - Effective dose range | Reversal of Scopolamine Induced amnesia - Effective dose range (dimesylate dihydrate)
COc1ccc2c(c1)c(CN1CCNCC1)cn2S(=O)(=O)c1ccccc1Br [Example 1, 1-[(2-Bromophenyl)sulfonyl]-5-methoxy-3-[(1-piperazinyl)methyl]-1H-indole] | 10-20 mg/kg, p.o. | 
COc1ccc2c(c1)c(CN1CCNCC1)cn2S(=O)(=O)c1ccccc1Br [Example 2, 1-[(2-Bromophenyl)sulfonyl]-5-methoxy-3-[(1-piperazinyl)methyl]-1H-indole dimesylate dihydrate] |  | 5-20 mg/kg, p.o.
